Common to all, as to test: DTP human tumour cell line panel, 48 h
Test [1] has as its system MCF7.
Test [2] concerns TK-10.
In test [3] the test system is KM12.
Test [4] relates to DU-145.
Test [5] deals with SF-268.
The subject of test [6] is NCI-H522.
For test [7], the system named is Hs-578T.
Test [8] relates to NCI-H226.
Test [9] concerns HT-29.
Test [10] concerns SK-MEL-5.
Test [11] relates to K562.
The subject of test [12] is PC-3.
The test system of test [13] is RXF 393.
For test [14], the system named is NCI-H460.
The test system of test [15] is SF-539.
Test [16] concerns UACC-62.
The subject of test [17] is NCI/ADR-RES.
Test [18] concerns OVCAR-8.
For test [19], the system named is HOP-92.

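In this assay, cells in 96-well plates receive the compound at five concentrations for 48 hours. Endpoints are linearly interpolated between the surrounding concentrations. GI50: concentration for 50% inhibition of growth.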 Activity calls are given as the source filed them. Cut-off read from the data, not from the text of the source: active = GI50 up to about 1.1 µM and inactive = higher. Where only a bound is given, the exact number is not on record here.

With `C[n+]1cccc(/C=C/c2ccc3cccc(O)c3n2)c1`, the GI50 (commonly the concentration at which growth is held to half of that of the control) in [1] is 72.4 µM (inactive); in [2], > 100 µM (inactive); in test [3], > 100 µM (inactive); in test [4] it was > 100 µM (inactive); in test [5], 26.9 µM (inactive); in test [6] it was 24.8 µM (inactive). Also, the GI50 in test [7] is 65.5 µM (inactive); in [8], > 100 µM (inactive); in test [9] it was > 100 µM (inactive); in [10], 37.1 µM (inactive); in test [11], 50.9 µM (inactive); in [12] it was > 100 µM (inactive). The GI50 is > 100 µM (inactive) in [13]; 68.7 µM (inactive) in test [14]; 88.1 µM (inactive) in [15]; > 100 µM (inactive) in [16]; > 100 µM (inactive) in test [17]; 72.3 µM (inactive) in test [18]. The GI50 in [19] was > 100 µM (inactive).
For the compound `Cc1nc(Cl)c(Cl)c(Cl)n1`, the GI50 in test [1] was 0.575 µM (active); in test [2], 1.08 µM (active); in test [3] it was 0.405 µM (active); in test [4], 2.81 µM (inactive); in [5] it was 1.92 µM (inactive); in [6], 1.79 µM (inactive). Also, the GI50 is 0.48 µM (active) in test [7]; 2.59 µM (inactive) in test [8]; 0.104 µM (active) in test [9]; 0.705 µM (active) in test [10]; < 0.0113 µM (active) in [11]; 0.348 µM (active) in [12]. Besides, the concentration for 50% growth inhibition (GI50) in test [13] is 0.495 µM (active); in test [14] it was 1.38 µM (inactive); in [15], 1.44 µM (inactive); in test [16], 0.375 µM (active); in test [17] it was 0.354 µM (active); in test [18] it was 0.755 µM (active). The 50% growth inhibitory concentration (GI50) in test [19] is 0.238 µM (active).
As for `Clc1nncc2sc(-c3ccccc3)nc12`, the GI50 in test [1] is 25.5 µM (inactive); in test [2], 40.9 µM (inactive); in [3], 28.9 µM (inactive); in [4], 6.62 µM (inactive); in test [5], 16.3 µM (inactive); in test [6] it was 8.73 µM (inactive). Besides, the GI50 in [7] was 20.6 µM (inactive); in test [8], 26 µM (inactive); in test [9] it was 20.3 µM (inactive); in test [10] it was 15.6 µM (inactive); in test [11], 7.71 µM (inactive); in test [12], 17.6 µM (inactive). Moreover, the GI50 is 16.6 µM (inactive) in test [13]; 16.8 µM (inactive) in [14]; 27.5 µM (inactive) in test [15]; 16.4 µM (inactive) in [16]; 23.2 µM (inactive) in test [17]; 20.1 µM (inactive) in test [18]. Moreover, in [19], the GI50 is 5.06 µM (inactive).
In the case of `Oc1ccc2ccccc2c1-c1nnc(CCCCCCCCc2nnc(-c3c(O)ccc4ccccc34)o2)o1`, the GI50 in test [1] was 8.95 µM (inactive); in [2], 9.42 µM (inactive); in test [3], 27.2 µM (inactive); in test [4], 5.08 µM (inactive); in test [5], 0.834 µM (active); in test [6], 0.63 µM (active). In addition, the GI50 is > 84.9 µM (inactive) in test [7]; 10.4 µM (inactive) in test [8]; 13.4 µM (inactive) in test [9]; 0.838 µM (active) in [10]; 0.955 µM (active) in [11]; 1.98 µM (inactive) in [12]. In addition, the GI50 was 3.48 µM (inactive) in test [13]; 0.955 µM (active) in [14]; 1.52 µM (inactive) in test [15]; 7.64 µM (inactive) in test [16]; 1.44 µM (inactive) in test [17]; 2.18 µM (inactive) in test [18]. Moreover, the GI50 in test [19] was 9.82 µM (inactive).
As to `COc1ccc(NC(=O)CC(=O)N2N=C(N(c3ccccc3)c3ccccc3)CC2c2ccccc2)cc1` (stereo unspecified), the GI50 in test [1], in test [2], in test [3], in test [4], in test [5] and in test [6] was > 100 µM (inactive) in each case. For the same compound, the GI50 in test [7] is 98.4 µM (inactive); in [8] it was > 100 µM (inactive); in test [9], > 100 µM (inactive); in test [11], > 100 µM (inactive); in test [12], > 100 µM (inactive); in test [13], > 100 µM (inactive). Further, the GI50 in [15], in test [16], in test [17], in [18] and in test [19] was > 100 µM (inactive) in each case.
For the compound `COc1cc2c(cc1OC)C13CCN4CC5CCOC6CC(=O)N2C1C6C5CC43` (stereo unspecified), the GI50 in test [1], in test [2], in test [3], in test [4], in test [5] and in test [6] was > 100 µM (inactive) throughout. The GI50 in test [7], in [8], in [9], in test [10], in [12] and in test [13] was > 100 µM (inactive) throughout. The GI50 in test [14], in test [15], in [16], in test [17], in test [18] and in test [19] was > 100 µM (inactive) throughout.
For the compound `Cc1cn2c(/C=C3/C(=O)Nc4ccccc43)c(C)nc2s1`, the GI50 is 0.547 µM (active) in test [1]; 3.78 µM (inactive) in test [2]; 0.261 µM (active) in [3]; 3.89 µM (inactive) in [4]; 3.98 µM (inactive) in test [5]; 1.32 µM (inactive) in [6]. In addition, the GI50 in test [7] is 1.99 µM (inactive); in test [9], 0.605 µM (active); in [10], 0.516 µM (active); in test [11], 0.431 µM (active); in test [12], 1.3 µM (inactive); in [13], 2.6 µM (inactive). Further, the GI50 was 0.653 µM (active) in test [14]; 1.33 µM (inactive) in test [15]; 1.33 µM (inactive) in test [16]; 2.39 µM (inactive) in [17]; 3.54 µM (inactive) in [18]; 14.4 µM (inactive) in [19].
Turning to `N/C(=N/c1ccc(O)cc1)S(=O)O`, the GI50 in [1], in [2], in [3], in test [4], in test [5] and in [6] was > 100 µM (inactive) in each case. The GI50 in [7] was > 100 µM (inactive); in test [8] it was 37.2 µM (inactive); in [9] it was > 100 µM (inactive); in test [10], > 100 µM (inactive); in [11] it was > 100 µM (inactive); in test [12], > 100 µM (inactive). The GI50 in test [13], in test [15], in test [16], in [17], in test [18] and in [19] was > 100 µM (inactive) throughout.
`O=C1N2CCc3c([nH]c4ccccc34)C23CC2CCCC12S3` (stereo unspecified): the GI50 in test [1] is 18.7 µM (inactive); in test [2] it was > 50 µM (inactive); in [3] it was 25.4 µM (inactive); in test [4] it was 39.4 µM (inactive); in [5], 36.1 µM (inactive); in [6] it was > 50 µM (inactive). The GI50 is 22 µM (inactive) in test [7]; > 50 µM (inactive) in [8]; 18.4 µM (inactive) in test [9]; 20.3 µM (inactive) in test [10]; > 50 µM (inactive) in test [11]; 24.7 µM (inactive) in test [12]. Further, the GI50 in test [13] is > 50 µM (inactive); in test [15] it was > 50 µM (inactive); in [16], 36.7 µM (inactive); in test [17], 10.7 µM (inactive); in [18], 28.8 µM (inactive); in test [19], 29 µM (inactive).
Turning to `COc1ccc2c(c1)/C(=C\c1c(-c3ccccc3)nc3n1CCS3)C(=O)N2`, the GI50 in test [1] is 4.62 µM (inactive); in test [2], 10.7 µM (inactive); in test [3], 3.33 µM (inactive); in [4] it was 16.3 µM (inactive); in [5], 9.2 µM (inactive); in [6], 4.63 µM (inactive). Moreover, the GI50 in [7] was 11 µM (inactive); in test [9], 3.71 µM (inactive); in test [10], 5.08 µM (inactive); in test [11], 2.94 µM (inactive); in test [12] it was 2.97 µM (inactive); in [13] it was 13.6 µM (inactive). Also, the GI50 was 3.52 µM (inactive) in test [14]; 5.9 µM (inactive) in test [15]; 4.83 µM (inactive) in [16]; 4.5 µM (inactive) in test [17]; 14.6 µM (inactive) in test [18]; 12.9 µM (inactive) in [19].
In the case of `C1=N\c2ccc(cc2)-c2ccc(cc2)/N=C\c2ccc(cc2)OCc2cccc(n2)COc2ccc/1cc2`, the GI50 is > 100 µM (inactive) in [1]; > 100 µM (inactive) in test [3]; > 100 µM (inactive) in test [4]; 16.1 µM (inactive) in test [5]; 34.5 µM (inactive) in test [6]; 18.2 µM (inactive) in [7]. Moreover, the GI50 in test [8] is 37 µM (inactive); in test [9], > 100 µM (inactive); in test [10], > 100 µM (inactive); in test [11], > 100 µM (inactive); in [12], > 100 µM (inactive); in test [13], 42.2 µM (inactive). Further, the GI50 in [14] is > 100 µM (inactive); in [15], > 100 µM (inactive); in test [16] it was > 100 µM (inactive); in [17], 99.3 µM (inactive); in [18], 25.1 µM (inactive); in test [19], > 100 µM (inactive).

(Values after ChEMBL document CHEMBL1201862, “PubChem BioAssay data set” (2004).)
